Data reported in the supplement of paper PMC8671470.

Legend:
Conditions in all cases: 72 h
[1] = tested on: BV-173
Method in brief: (§1)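 Seeded in RPMI 1640 at densities within the linear growth range, fifteen myeloid leukaemia cell lines were dispensed into 384-well plates with acoustically pre-printed compounds spanning five tenfold doses from 1 to 10,000 nM, in duplicate. The plates were kept for 72 h at 37 °C in 5% CO2 before luminescent ATP viability was measured and normalised to vehicle and to a positive control at 10 µM. Curves were fitted with a four-parameter log-logistic model. The IC50 was taken from those curves.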

[2] = tested on: HEL
Method in brief: as §1

[3] = tested on: HL-60
Method in brief: as §1

[4] = tested on: K-562
Method in brief: as §1

[5] = tested on: KCL-22
Method in brief: as §1

[6] = tested on: KG-1
Method in brief: as §1

[7] = tested on: KU-812
Method in brief: as §1

[8] = tested on: LAMA-84
Method in brief: as §1

[9] = tested on: ML-2
Method in brief: as §1

[10] = tested on: MOLM-13
Method in brief: as §1

[11] = tested on: MV4-11
Method in brief: as §1

[12] = tested on: Mono-Mac-6
Method in brief: as §1

[13] = tested on: NOMO-1
Method in brief: as §1

[14] = tested on: SHI-1
Method in brief: as §1

[15] = tested on: THP-1
Method in brief: as §1

[16] = tested on: HL-60; experiment: cell viability (% survival relative to DMSO control); higher = less cytotoxic
Method in brief: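 In 384-well plates, the full library was rescreened in duplicate on HL-60 cells in RPMI 1640 with 10% FBS, at 1–10,000 nM in five tenfold concentrations, for 72 h at 37 °C, 5% CO2. Each run also held DMSO or 100 nM of one of three metabolic inhibitors. Viability was measured by CellTiter-Glo and normalised to DMSO wells and to wells with proteasome inhibitor, present at 10 μM. Any area under the curve comes from four-parameter log-logistic fitting with drc and PharmacoGx.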

[17] = tested on: BV-173; experiment: cell viability (% survival relative to DMSO control, bortezomib = 0%); higher = less cytotoxic
Method in brief: (§2)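 Fifteen myeloid leukaemia cell lines (10 AML, 5 CML) were seeded at a density titrated to the linear growth range into 384-well plates pre-printed with compounds at 1, 10, 100, 1000 or 10000 nM in duplicate. Plates were incubated for 72 h at 37 °C with 5% CO2. Viability was then read by CellTiter-Glo luminescence. Each value is percent survival averaged over the duplicates, with vehicle set to 100% and a 10 µM positive control to 0%.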

[18] = tested on: HL-60; experiment: as above
Method in brief: as §2

[19] = tested on: K-562; experiment: as above
Method in brief: as §2

[20] = tested on: KCL-22; experiment: as above
Method in brief: as §2

[21] = tested on: KG-1; experiment: as above
Method in brief: as §2

[22] = tested on: KU-812; experiment: as above
Method in brief: as §2

[23] = tested on: LAMA-84; experiment: as above
Method in brief: as §2

[24] = tested on: ML-2; experiment: as above
Method in brief: as §2

[25] = tested on: MOLM-13; experiment: as above
Method in brief: as §2

[26] = tested on: MV4-11; experiment: as above
Method in brief: as §2

[27] = tested on: NOMO-1; experiment: as above
Method in brief: as §2

[28] = tested on: THP-1; experiment: as above
Method in brief: as §2

CN(C)C(=O)[C@H](O)[C@H](Cc1ccccc1)NC(=O)c1cc2cc(Cl)ccc2[nH]1
Conditions	IC50 (cell viability) [µM]
[1]	> 10
[2]	> 10
[3]	> 10
[4]	> 10
[5]	> 10
[6]	> 10
[7]	> 10
[8]	> 10
[9]	> 10
[10]	> 10
[11]	> 10
[12]	> 10
[13]	> 10
[14]	> 10
[15]	> 10

cell viability [%], [16]
Conditions	0.001 µM	0.01 µM	0.1 µM	1 µM	10 µM
co-treatment: AZD3965 100 nM	105	101	98.4	101	100.2
co-treatment: DMSO vehicle	101	102.3	95.7	100	110
co-treatment: GSK2194069 100 nM	102	110	101	100	99.4
co-treatment: pictilisib 100 nM	97.4	107	93.8	96	97.3

cell viability [%]
Conditions	1 nM	10 nM	100 nM	1000 nM	10000 nM
[17]	88.3	110	98.4	105	73.2
[18]	85.4	100	108	174	89.1
[19]	79	84.3	94.3	105	79
[20]	107	98.3	108	105	91.6
[21]	102	93.9	95.2	114	80.3
[22]	98.1	96	102	104	62.6
[23]	94.6	97.6	114	107	83.3
[24]	110	100	106	120	85
[25]	97.6	98.6	101	123	88.1
[26]	97.9	83.8	98.4	102	68.6
[27]	101	102	106	106	95.4
[28]	96.3	95.8	103	104	91.8

COc1ccc(CNC(=O)Nc2ncc([N+](=O)[O-])s2)cc1
Conditions	IC50 (cell viability) [µM]
[1]	> 10
[2]	> 10
[3]	> 10
[4]	> 10
[5]	> 10
[6]	> 10
[7]	> 10
[8]	> 10
[9]	> 10
[10]	> 10
[11]	> 10
[12]	> 10
[13]	> 10
[14]	> 10
[15]	> 10

cell viability [%], [16]
Conditions	0.001 µM	0.01 µM	0.1 µM	1 µM	10 µM
co-treatment: AZD3965 100 nM	99.1	97.6	102	91.4	95.2
co-treatment: DMSO vehicle	103	94.7	99.35	102	107
co-treatment: GSK2194069 100 nM	89.7	81	106	86.5	116
co-treatment: pictilisib 100 nM	84	103	106	96.3	105

cell viability [%]
Conditions	1 nM	10 nM	100 nM	1000 nM	10000 nM
[17]	91.7	100	101	97.7	92.7
[18]	108	101	115	95.6	104
[19]	85.6	103	108	89.4	97.7
[20]	106	97.7	104	102	79.7
[21]	90.5	146	93.8	94.8	173
[22]	97.8	107	92.1	96.7	122
[23]	109	105	110	104	108
[24]	91.8	101	107	105	104
[25]	99.8	108	97.8	102	105
[26]	101	99.1	108	94.7	90.6
[27]	108	97.1	97.9	106	99.5
[28]	101	101	104	105	99.1
